Reference: paper PMC8848031 (Saudi Journal of Biological Sciences, 2021)
Values joined by “and” are separate entries in the source; they are usually repeats but may differ in a detail not shown here. Identical values can stand only once.

Experiments:
[1] = molecular target: Saccharomyces cerevisiae α-glucosidase (E.C 3.2.1.20) (Saccharomyces cerevisiae, UniProt P53341); test: Alpha-glucosidase inhibition assay; format: biochemical; details: Alpha-glucosidase inhibition IC50, isolated compounds; acarbose positive control
Saccharomyces cerevisiae α-glucosidase (E.C 3.2.1.20), sequence (P53341 whole entry): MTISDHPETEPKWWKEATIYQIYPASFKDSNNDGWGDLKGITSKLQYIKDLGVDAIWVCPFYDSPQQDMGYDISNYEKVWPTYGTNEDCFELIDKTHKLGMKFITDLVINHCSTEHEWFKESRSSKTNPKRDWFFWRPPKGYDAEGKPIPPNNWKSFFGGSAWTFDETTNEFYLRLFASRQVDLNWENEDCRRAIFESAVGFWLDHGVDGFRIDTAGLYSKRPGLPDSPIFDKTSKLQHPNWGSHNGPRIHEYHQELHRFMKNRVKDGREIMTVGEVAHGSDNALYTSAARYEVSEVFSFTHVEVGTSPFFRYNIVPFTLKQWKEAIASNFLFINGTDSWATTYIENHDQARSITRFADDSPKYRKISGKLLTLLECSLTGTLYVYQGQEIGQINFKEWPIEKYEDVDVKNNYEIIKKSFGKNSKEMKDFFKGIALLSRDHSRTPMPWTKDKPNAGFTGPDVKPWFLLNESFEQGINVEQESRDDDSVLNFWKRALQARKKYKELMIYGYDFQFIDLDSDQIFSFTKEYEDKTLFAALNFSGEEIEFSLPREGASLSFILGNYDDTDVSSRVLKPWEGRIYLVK

alpha-glucosidase [2] = molecular target: alpha-glucosidase (Saccharomyces cerevisiae, UniProt P53341); test: Inhibitory type assay of BM3 on alpha-glucosidase; format: biochemical
alpha-glucosidase (Saccharomyces cerevisiae, UniProt P53341), sequence (P53341 whole entry): as above

alpha-glucosidase [3] = details: kinetic studies; ref Adisakwattana et al. (2009); cited from earlier work
alpha-glucosidase [4] = details: ref Wu et al., 2017; cited from earlier work
pancreatic lipase enzyme = details: extracted from T. stans leaves; ref [28]; cited from earlier work

COC(=O)c1cc(O)c(O)c(O)c1 [BM2, methyl gallate]
IC50 [1]: 71 ± 2.1 µM

COC(=O)c1cc(O)c(O)c(OC(=O)c2cc(O)c(O)c(O)c2)c1 [BM3, 3-O-galloylgallic acid methyl ester]
Ki (alpha-glucosidase [2]): 31.2 µM
inhibition type (alpha-glucosidase [2]; Lineweaver-Burk plots, pNPG 1, 2, 4 mM): competitive
Vmax (alpha-glucosidase [2]; no effect of increasing BM3 concentration): 0.049 µM/min
IC50 [1]: 18.2 ± 0.8 µM

O=c1c(O[C@@H]2O[C@H](CO)[C@@H](O)[C@H](O)[C@H]2O)c(-c2ccc(O)c(O)c2)oc2cc(O)cc(O)c12 [NC2, isoquercitrin]
IC50 [1]: 35.6 µM and 36.8 µM

O=C(O)/C=C/c1ccc(O)c(O)c1 [NC3, caffeic acid]
inhibition type (alpha-glucosidase [3]): non-competitive

C[C@H]1[C@H](C)CC[C@]2(C(=O)O)CC[C@]3(C)C(=CC[C@@H]4[C@@]5(C)CC[C@H](O)C(C)(C)[C@@H]5CC[C@]43C)[C@H]12 [TS1, ursolic acid]
inhibition of alpha-glucosidase (alpha-glucosidase [4]): strong inhibition
IC50 [1]: 39.2 ± 0.6 µM

COc1cc(-c2cc(=O)c3c(O)cc(O)cc3o2)ccc1O [TS3, chrysoeriol]
inhibition of pancreatic lipase enzyme (pancreatic lipase enzyme): strong inhibition
